3 compounds from patent publication US8466131B2, “Ligands specific for cannabinoid receptor subtype 2” (University of Pittsburgh—of the Commonwealth System of …, priority 2007, dated 2013) can be followed below.

The target in one assay is T1, CB2 receptor (Homo sapiens, UniProt P34972).
T1 construct: expressed in transfected cells; host or cells: CHO-K1
Nature of the assay: forskolin-stimulated cAMP assay in CB2 receptor transfected CHO-K1 cells. Type of assay: cell-based. The following applies: for effect on CB2 agonist WIN55,212-2 response (cAMP): 1 μM antagonist, with increasing WIN55,212-2, 30 min prior to forskolin (20 μM), FIG. 2; for functional mode of ligand alone (cAMP): ligand alone at increasing concentrations 30 min prior to forskolin (20 μM), FIG. 3. As to the method:
FIG. 2. Confluentially growing CB2 receptor transfected […] CHO-K1 cells were stimulated with forskolin (20 μM) and analyzed for cAMP expression after 30 min. The CB2 agonist WIN55, 212-2 was incubated at increasing concentrations 30 min prior to forskolin stimulation alone or in presence of 1 μM of the antagonists AM630 and the compound of Formula II.
FIG. 3. Confluentially growing CB2 receptor transfected […] CHO-K1 cells were stimulated with forskolin (20 μM) and analyzed for cAMP expression after 30 minutes. CB2 ligands were incubated at increasing concentrations 30 minutes prior to forskolin stimulation.
Cell-based Functional Bioassay Studies. […] Subsequently, further receptor biological studies were performed: i) to examine/assess the G-protein effects of the compound of Formula II upon CB2 receptor binding and ii) to test the compound of Formula II for anti-inflammatory effects.
In general terms: Cyclic AMP is a second messenger, typically raised through Gs and lowered through Gi signalling.

Another assay has as its target T2, CB2 cannabinoid receptor (Mus musculus, UniProt P47936).
T2 construct: from tissue; host or cells: frozen mouse spleen membranes
Nature of the assay: [3H]-CP-55,940 radiometric competition binding assay, CB2 (mouse spleen membrane). The following applies: displacement of 3H-CP 55940, mouse spleen membrane; read-out: CB2 binding affinity (Ki). As to the method: (§1) In-vitro Bio-validation Experiment. To biologically validate the screened hit compounds above, in-vitro [^3H]-radioactive CB ligand binding assays were carried out to determine the CB receptor binding affinity (Ki) of the screened ligands by displacing [^3H]-CP-55,940. The compound of Formula II was obtained from National Cancer Institute (NCI). For each assay, a positive control with a known ligand (SR-141716A for CB1 and SR-144528 for CB2) was run to ensure the reliability of the assay.
For CB2 receptor binding studies, membranes were prepared from frozen mouse spleen. […]
(§2) The experiments were conducted based on reported procedures. […] 1999, 1(3):article 4; Abadji et al., J. Med. Chem. 1994, 37(120:1889-1893; and Abadji et al., J. Neurochem. 1999, 72(5):2032-38. Thus, the competition binding assay was performed using [3H]-CP-55,940 (1 nM) as a radioligand for the CB1 or CB2 cannabinoid receptor (rate brain or mouse spleen membranes), at 30° C. in 96-well microtiter plates, 50 μg of membrane each well re-suspended in 200 μl (final volume) binding buffer (50 mM Tris-HCl, 2.5 mM EGTA, 3 mM MgCl2, 0.1% bovine serum albumin, pH 7.4). The tested compounds were presented at varying concentrations, and the nonspecific binding was determined in the presence of 10 μM CP-55,940 or HU-210. […] The Ki values were calculated by using GraphPad Prism 5.0 (GraphPad Software, Inc.).
For orientation: In a radioligand displacement assay an active substance lowers the binding of a labelled ligand.

In the next assay the target is T3, CB1 cannabinoid receptor (Rattus norvegicus, UniProt P20272).
T3 construct: from tissue; host or cells: rat forebrain membranes
T3 sequence (P20272 whole entry): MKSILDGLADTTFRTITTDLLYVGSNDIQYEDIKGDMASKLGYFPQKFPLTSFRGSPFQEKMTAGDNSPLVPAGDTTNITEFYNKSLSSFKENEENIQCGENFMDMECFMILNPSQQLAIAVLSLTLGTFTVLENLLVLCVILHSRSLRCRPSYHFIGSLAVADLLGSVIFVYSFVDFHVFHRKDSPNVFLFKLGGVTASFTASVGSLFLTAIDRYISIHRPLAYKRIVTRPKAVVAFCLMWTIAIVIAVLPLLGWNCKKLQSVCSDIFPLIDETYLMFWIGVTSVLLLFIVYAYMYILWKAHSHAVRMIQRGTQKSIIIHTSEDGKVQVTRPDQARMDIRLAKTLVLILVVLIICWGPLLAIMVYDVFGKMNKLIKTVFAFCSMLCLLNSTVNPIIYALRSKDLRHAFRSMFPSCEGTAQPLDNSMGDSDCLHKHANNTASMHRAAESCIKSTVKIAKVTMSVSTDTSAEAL
In words: [3H]-CP-55,940 radiometric competition binding assay, CB1 (rat forebrain membrane). As to conditions: displacement of 3H-CP 55940, rat forebrain membrane; read-out: CB1 binding affinity (Ki). As to the method:
as §1
For CB1 receptor binding studies, rat forebrain membranes were prepared following the reported procedures. […]
as §2

Entries after “also recorded” stand apart in the source; their conditions may differ. Bounds are passed on as bounds.

T1 sequence (P34972 whole entry): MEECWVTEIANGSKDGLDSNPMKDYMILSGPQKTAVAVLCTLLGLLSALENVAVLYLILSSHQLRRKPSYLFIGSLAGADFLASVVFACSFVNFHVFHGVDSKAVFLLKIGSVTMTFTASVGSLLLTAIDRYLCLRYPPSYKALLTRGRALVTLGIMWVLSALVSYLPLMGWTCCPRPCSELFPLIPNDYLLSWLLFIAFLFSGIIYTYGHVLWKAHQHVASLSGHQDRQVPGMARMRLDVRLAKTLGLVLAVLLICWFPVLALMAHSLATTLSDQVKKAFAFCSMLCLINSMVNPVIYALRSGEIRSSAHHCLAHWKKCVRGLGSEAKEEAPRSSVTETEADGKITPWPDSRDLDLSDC
T2 sequence (P47936 whole entry): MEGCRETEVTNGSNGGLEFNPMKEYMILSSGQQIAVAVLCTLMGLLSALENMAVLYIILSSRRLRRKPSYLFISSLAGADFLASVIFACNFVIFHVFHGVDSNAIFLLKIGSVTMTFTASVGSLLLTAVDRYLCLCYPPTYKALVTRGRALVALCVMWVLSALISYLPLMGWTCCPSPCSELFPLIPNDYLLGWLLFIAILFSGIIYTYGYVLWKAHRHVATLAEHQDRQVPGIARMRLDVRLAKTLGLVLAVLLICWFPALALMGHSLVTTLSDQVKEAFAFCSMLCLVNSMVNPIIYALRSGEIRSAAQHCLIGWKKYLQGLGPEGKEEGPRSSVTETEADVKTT

Take `COc1ccc(C(=O)c2c(C)n(CCN3CCOCC3)c3cc(I)ccc23)cc1` [AM630, reference compound]: on CB2 receptor, the “effect on CB2 agonist WIN55,212-2 response (cAMP)” value is listed as “inhibits the effect of WIN55,212-2” and the “functional mode of ligand alone (cAMP)” value is recorded as “inverse agonist”.

By Ki is commonly meant the equilibrium dissociation constant of an inhibitor or competing ligand from its target. Turning to `N/C(=N\Cc1ccccc1)C(/N=N/c1ccccc1)C(=O)NCc1ccccc1` (centres unmarked) [Formula II], at CB2 receptor, the “effect on Go signaling” value is listed as “does not affect Go signaling”, the “effect on CB2 agonist WIN55,212-2 response (cAMP)” value is reported as “inhibits the effect of WIN55,212-2; also recorded: antagonist like the known CB2 antagonist AM630 (but weaker)” and the “functional mode of ligand alone (cAMP)” value is “weak agonist at high concentration; also recorded: not an inverse agonist”. The “concentration at which compound becomes an agonist (cAMP)” value on CB2 receptor (FIG. 3, running text) is around 10 µM. Also, at CB2 receptor (FIG. 3 legend), the “concentration at which compound is a weak agonist (cAMP)” value is above 7 mM. The “impact on Gi-proteins” value at CB2 receptor (at concentrations up to low μM) was “does not have an impact on Gi-proteins”. Moreover, the Ki on CB2 cannabinoid receptor amounted to 31.7 nM. In addition, the Ki on CB1 cannabinoid receptor worked out at 4.18 µM.

With SR144528 [reference compound], the “functional mode of ligand alone (cAMP)” value on CB2 receptor is listed as “inverse agonist”.
